Measurements as given in PMC5896373 (Molecular Pharmacology, 2018).
“And” between values parts separate entries of the source, which are not always exact repeats. Identical values can stand only once.

What was measured:
[1] = biological target: T1, chimeric P2X7/1 receptor 210–217 (Homo sapiens, UniProt Q99572, G211E/I214K/I21V/INS213AAHM/L212V/M24R/N16P/N25R/P210E/Q22R/R20V/S23N/T19I/T217L/Y26L); test: Two-electrode voltage clamp of ATP-evoked currents in Xenopus oocytes; format: cell-based
T1 construct: expressed in transfected cells; host or cells: Xenopus laevis oocytes (cRNA injection)
T1 sequence (Q99572 with tags, fused parts or gaps N16P/T19I/R20V/I21V/Q22R/S23N/M24R/N25R/Y26L/P210E/G211E/L212V/INS213AAHM/I214K/T217L): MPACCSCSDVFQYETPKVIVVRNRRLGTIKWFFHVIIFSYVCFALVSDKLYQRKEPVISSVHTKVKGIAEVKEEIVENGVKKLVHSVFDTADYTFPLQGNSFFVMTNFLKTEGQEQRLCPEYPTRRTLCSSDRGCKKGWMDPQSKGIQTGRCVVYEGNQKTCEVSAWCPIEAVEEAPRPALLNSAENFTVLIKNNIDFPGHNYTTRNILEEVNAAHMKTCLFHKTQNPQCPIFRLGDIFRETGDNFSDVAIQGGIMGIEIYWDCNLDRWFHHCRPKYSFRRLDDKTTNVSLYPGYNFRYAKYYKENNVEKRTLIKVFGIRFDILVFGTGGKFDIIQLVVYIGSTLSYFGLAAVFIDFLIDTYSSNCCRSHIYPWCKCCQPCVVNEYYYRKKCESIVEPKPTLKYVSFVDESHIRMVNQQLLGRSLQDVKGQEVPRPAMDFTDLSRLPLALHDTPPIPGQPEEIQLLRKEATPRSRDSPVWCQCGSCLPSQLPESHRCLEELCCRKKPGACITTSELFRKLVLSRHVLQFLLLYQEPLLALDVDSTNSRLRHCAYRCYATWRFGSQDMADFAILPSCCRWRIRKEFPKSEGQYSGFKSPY
Protocol: (§1) The production of the correct mutations and absence of coding errors was determined by DNA sequencing (Automated ABI Sequencing Service, University of Leicester, UK). cRNA was generated for the mutants and 50 nl (50 ng) was injected into manually defoliculated stage V Xenopus laevis oocytes using an Inject+Matic microinjector (J.A. Gabay, Inject+Matic, Geneva, Switzerland). Injected oocytes were stored at 16°C in ND96 buffer [in millimolar concentrations, NaCl 96, KCl 2, CaCl2 1.8, MgCl2 1, sodium pyruvate 5, and HEPES 5 (pH 7.6) supplemented with 50 μg/ml gentamycin and 50 μg/ml tetracycline]. Three to seven days postinjection two-electrode voltage clamp recordings were made from oocytes bathed in divalent-free ND96 buffer (in millimolar concentrations, NaCl 96, KCl 2, sodium pyruvate 5, HEPES 5, and 0.1 flufenamic acid, pH 7.6). Oocytes were voltage clamped at a holding potential of −60 mV with a GeneClamp500B amplifier (Molecular Devices).
(§2) Inhibition by the antagonists was expressed as the percentage of the peak current amplitude of an EC90 concentration of ATP recorded before the application of antagonist (ATP gave reproducible responses to ATP in the absence of antagonist). Inhibition curves were fitted with the Hill equation (variable slope) using GraphPad Prism 6 (GraphPad Software, San Diego, CA). […] Individual concentration-response curves were generated for individual experiments, and statistical analysis was carried out on the data generated. […] Data are shown as mean ± S.E.M. In all cases n ≥ 3 for all data points.

P2X7-2Nβ receptor = biological target: T2, P2X7-2Nβ receptor (Homo sapiens, UniProt Q99572, I21V/M24R/N16P/N25R/Q22R/R20V/S23N/T19I/Y26L); test: as above; format: cell-based; conditions: inhibition of EC90 ATP response
T2 construct: expressed in transfected cells; host or cells: Xenopus laevis oocytes (cRNA injection)
Protocol: as §1, §2

P2X7R point mutant F88W = biological target: T3, P2X7R point mutant F88W (Homo sapiens, UniProt Q99572, F88W/I21V/M24R/N16P/N25R/Q22R/R20V/S23N/T19I/Y26L); test: as above; format: cell-based; conditions: EC90 ATP, mean ± S.E.M.
T3 construct: expressed in transfected cells; host or cells: Xenopus laevis oocytes (cRNA injection)
Protocol: (§3) Additional point mutants were made using the QuikChange mutagenesis kit (Stratagene California, La Jolla, CA). The production of the correct mutations and absence of coding errors was determined by DNA sequencing (Automated ABI Sequencing Service, University of Leicester, UK). cRNA was generated for the mutants and 50 nl (50 ng) was injected into manually defoliculated stage V Xenopus laevis oocytes using an Inject+Matic microinjector (J.A. Gabay, Inject+Matic, Geneva, Switzerland). Injected oocytes were stored at 16°C in ND96 buffer [in millimolar concentrations, NaCl 96, KCl 2, CaCl2 1.8, MgCl2 1, sodium pyruvate 5, and HEPES 5 (pH 7.6) supplemented with 50 μg/ml gentamycin and 50 μg/ml tetracycline]. Three to seven days postinjection two-electrode voltage clamp recordings were made from oocytes bathed in divalent-free ND96 buffer (in millimolar concentrations, NaCl 96, KCl 2, sodium pyruvate 5, HEPES 5, and 0.1 flufenamic acid, pH 7.6). Oocytes were voltage clamped at a holding potential of −60 mV with a GeneClamp500B amplifier (Molecular Devices).
(§4) Inhibition by the antagonists was expressed as the percentage of the peak current amplitude of an EC90 concentration of ATP recorded before the application of antagonist (ATP gave reproducible responses to ATP in the absence of antagonist). […]

P2X7R point mutant F108C = biological target: T4, P2X7R point mutant F108C (Homo sapiens, UniProt Q99572, F108C/I21V/M24R/N16P/N25R/Q22R/R20V/S23N/T19I/Y26L); test: cell-based
T4 construct: expressed in transfected cells; host or cells: Xenopus laevis oocytes (cRNA injection)
Protocol: (§5) Injected oocytes were stored at 16°C in ND96 buffer [in millimolar concentrations, NaCl 96, KCl 2, CaCl2 1.8, MgCl2 1, sodium pyruvate 5, and HEPES 5 (pH 7.6) supplemented with 50 μg/ml gentamycin and 50 μg/ml tetracycline]. Three to seven days postinjection two-electrode voltage clamp recordings were made from oocytes bathed in divalent-free ND96 buffer (in millimolar concentrations, NaCl 96, KCl 2, sodium pyruvate 5, HEPES 5, and 0.1 flufenamic acid, pH 7.6). Oocytes were voltage clamped at a holding potential of −60 mV with a GeneClamp500B amplifier (Molecular Devices).
as §2

P2X7-2Nβ 73–79 deletion = biological target: T5, P2X7-2Nβ 73–79 deletion (Homo sapiens, UniProt Q99572, DEL73-79/I21V/M24R/N16P/N25R/Q22R/R20V/S23N/T19I/Y26L); test: Two-electrode voltage clamp of ATP-evoked currents in Xenopus oocytes; format: cell-based
T5 construct: expressed in transfected cells; host or cells: Xenopus laevis oocytes (cRNA injection)
T5 sequence (Q99572 with tags, fused parts or gaps N16P/T19I/R20V/I21V/Q22R/S23N/M24R/N25R/Y26L/DEL73-79): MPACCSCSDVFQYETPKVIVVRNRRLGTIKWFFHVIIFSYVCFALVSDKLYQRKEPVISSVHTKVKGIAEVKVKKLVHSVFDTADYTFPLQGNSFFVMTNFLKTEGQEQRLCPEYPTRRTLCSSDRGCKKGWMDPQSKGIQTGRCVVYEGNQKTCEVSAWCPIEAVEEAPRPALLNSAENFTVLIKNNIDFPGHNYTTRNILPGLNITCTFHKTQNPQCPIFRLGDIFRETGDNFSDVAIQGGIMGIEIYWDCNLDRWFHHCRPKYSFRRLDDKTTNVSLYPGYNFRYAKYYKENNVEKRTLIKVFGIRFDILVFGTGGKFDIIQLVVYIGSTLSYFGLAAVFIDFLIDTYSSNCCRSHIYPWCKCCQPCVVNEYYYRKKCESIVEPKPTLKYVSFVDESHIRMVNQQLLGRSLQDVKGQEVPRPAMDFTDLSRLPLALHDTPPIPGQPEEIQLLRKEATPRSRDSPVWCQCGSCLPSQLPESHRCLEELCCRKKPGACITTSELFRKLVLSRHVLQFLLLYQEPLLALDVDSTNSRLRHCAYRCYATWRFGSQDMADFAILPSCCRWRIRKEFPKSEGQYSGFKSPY
Protocol: as §3, §2

P2X7R point mutant V312A = biological target: T6, P2X7R point mutant V312A (Homo sapiens, UniProt Q99572, I21V/M24R/N16P/N25R/Q22R/R20V/S23N/T19I/V312A/Y26L); test: cell-based
T6 construct: expressed in transfected cells; host or cells: Xenopus laevis oocytes (cRNA injection)
Protocol: as §5, §2

[2] = biological target: T7, chimeric P2X7R with left flipper 280–284 of P2X4 (Homo sapiens, UniProt Q99572, D280T/I21V/K281R/M24R/N16P/N25R/N284E/Q22R/R20V/S23N/T19I/T282D/T283V/Y26L); test: cell-based
T7 sequence (Q99572 1-595 N16P/T19I/R20V/I21V/Q22R/S23N/M24R/N25R/Y26L/D280T/K281R/T282D/T283V/N284E): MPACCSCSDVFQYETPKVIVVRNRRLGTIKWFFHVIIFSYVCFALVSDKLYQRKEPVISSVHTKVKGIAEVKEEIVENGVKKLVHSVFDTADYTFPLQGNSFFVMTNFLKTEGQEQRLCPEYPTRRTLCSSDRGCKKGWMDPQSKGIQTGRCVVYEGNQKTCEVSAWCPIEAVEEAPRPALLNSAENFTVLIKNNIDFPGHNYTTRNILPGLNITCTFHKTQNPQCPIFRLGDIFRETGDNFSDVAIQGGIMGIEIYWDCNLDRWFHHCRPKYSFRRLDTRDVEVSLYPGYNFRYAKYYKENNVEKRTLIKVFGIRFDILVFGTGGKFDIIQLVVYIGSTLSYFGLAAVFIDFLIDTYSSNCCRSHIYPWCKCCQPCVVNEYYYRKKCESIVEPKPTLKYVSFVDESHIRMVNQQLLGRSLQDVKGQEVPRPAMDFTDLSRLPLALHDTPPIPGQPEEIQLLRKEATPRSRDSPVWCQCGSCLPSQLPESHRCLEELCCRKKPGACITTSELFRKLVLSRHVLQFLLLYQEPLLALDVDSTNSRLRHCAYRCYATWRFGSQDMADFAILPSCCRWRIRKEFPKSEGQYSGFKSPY
Protocol: as §1, §2

P2X7R point mutant D92A = biological target: T8, P2X7R point mutant D92A (Homo sapiens, UniProt Q99572, D92A/I21V/M24R/N16P/N25R/Q22R/R20V/S23N/T19I/Y26L); test: Two-electrode voltage clamp of ATP-evoked currents in Xenopus oocytes; format: cell-based; conditions: EC90 ATP, mean ± S.E.M.
T8 construct: expressed in transfected cells; host or cells: Xenopus laevis oocytes (cRNA injection)
Protocol: as §5, §2

P2X7R point mutant M105A = biological target: T9, P2X7R point mutant M105A (Homo sapiens, UniProt Q99572, I21V/M105A/M24R/N16P/N25R/Q22R/R20V/S23N/T19I/Y26L); test: as above; format: cell-based; conditions: EC90 ATP, mean ± S.E.M.
T9 construct: expressed in transfected cells; host or cells: Xenopus laevis oocytes (cRNA injection)
Protocol: as §5, §2

P2X7R point mutant H85P = biological target: T10, P2X7R point mutant H85P (Homo sapiens, UniProt Q99572, H85P/I21V/M24R/N16P/N25R/Q22R/R20V/S23N/T19I/Y26L); test: as above; format: cell-based; conditions: EC90 ATP, mean ± S.E.M.
T10 construct: expressed in transfected cells; host or cells: Xenopus laevis oocytes (cRNA injection)
T10 sequence (Q99572 whole entry N16P/T19I/R20V/I21V/Q22R/S23N/M24R/N25R/Y26L/H85P): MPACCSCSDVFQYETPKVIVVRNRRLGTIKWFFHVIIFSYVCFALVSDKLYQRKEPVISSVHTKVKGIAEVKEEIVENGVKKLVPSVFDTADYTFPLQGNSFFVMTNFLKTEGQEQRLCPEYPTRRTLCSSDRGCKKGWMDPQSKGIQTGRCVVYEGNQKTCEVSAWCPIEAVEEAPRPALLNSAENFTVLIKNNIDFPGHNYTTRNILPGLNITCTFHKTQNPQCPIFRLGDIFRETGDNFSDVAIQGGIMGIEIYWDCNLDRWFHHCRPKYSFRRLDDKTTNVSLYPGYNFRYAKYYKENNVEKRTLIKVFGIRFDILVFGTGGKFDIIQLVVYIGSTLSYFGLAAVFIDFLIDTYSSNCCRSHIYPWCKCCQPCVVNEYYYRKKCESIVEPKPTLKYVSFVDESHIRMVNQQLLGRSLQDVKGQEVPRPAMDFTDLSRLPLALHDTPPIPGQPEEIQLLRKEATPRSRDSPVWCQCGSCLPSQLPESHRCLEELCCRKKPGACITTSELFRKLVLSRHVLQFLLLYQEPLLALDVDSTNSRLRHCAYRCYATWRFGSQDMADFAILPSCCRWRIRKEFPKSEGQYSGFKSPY
Protocol: as §3, §4

T2 sequence (Q99572 whole entry N16P/T19I/R20V/I21V/Q22R/S23N/M24R/N25R/Y26L): as the sequence (Q99572 whole entry N16P/T19I/R20V/I21V/Q22R/S23N/M24R/N25R/Y26L/H85P) above, with P85H counted along it
T3 sequence (Q99572 whole entry N16P/T19I/R20V/I21V/Q22R/S23N/M24R/N25R/Y26L/F88W): as the sequence (Q99572 whole entry N16P/T19I/R20V/I21V/Q22R/S23N/M24R/N25R/Y26L/H85P) above, with P85H, F88W counted along it
T9 sequence (Q99572 whole entry N16P/T19I/R20V/I21V/Q22R/S23N/M24R/N25R/Y26L/M105A): as the sequence (Q99572 whole entry N16P/T19I/R20V/I21V/Q22R/S23N/M24R/N25R/Y26L/H85P) above, with P85H, M105A counted along it
T8 sequence (Q99572 whole entry N16P/T19I/R20V/I21V/Q22R/S23N/M24R/N25R/Y26L/D92A): as the sequence (Q99572 whole entry N16P/T19I/R20V/I21V/Q22R/S23N/M24R/N25R/Y26L/H85P) above, with P85H, D92A counted along it
T6 sequence (Q99572 whole entry N16P/T19I/R20V/I21V/Q22R/S23N/M24R/N25R/Y26L/V312A): as the sequence (Q99572 whole entry N16P/T19I/R20V/I21V/Q22R/S23N/M24R/N25R/Y26L/H85P) above, with P85H, V312A counted along it
T4 sequence (Q99572 whole entry N16P/T19I/R20V/I21V/Q22R/S23N/M24R/N25R/Y26L/F108C): as the sequence (Q99572 whole entry N16P/T19I/R20V/I21V/Q22R/S23N/M24R/N25R/Y26L/H85P) above, with P85H, F108C counted along it

Compound	IC50 [1] [µM]	effect on antagonist sensitivity relative to P2X7-2Nβ ([1]; chimera 210–217)	IC50 (P2X7-2Nβ receptor)	IC50 (P2X7R point mutant F88W) [µM]	IC50 (P2X7R point mutant F108C) [µM]	IC50 (P2X7-2Nβ 73–79 deletion) [µM]	effect on antagonist sensitivity relative to P2X7-2Nβ (P2X7-2Nβ 73–79 deletion; 73–79 deletion)	IC50 (P2X7R point mutant V312A) [µM]	IC50 [2] [µM]	IC50 (P2X7R point mutant D92A) [µM]	IC50 (P2X7R point mutant M105A) [µM]	IC50 (P2X7R point mutant H85P) [µM]
COc1ccc(CC(=O)NC(N=C(NC#N)Nc2cccc3ncccc23)C(C)(C)C)cc1OC (stereo not shown) [A740003, N-[1-[[(cyanoamino)(5-quinolinylamino)methylene]amino]-2,2-dimethylpropyl]-3,4-dimethoxybenzeneacetamide]	0.0794	unaffected	0.0794 µM	0.158	1	0.0794	unaffected	0.398	0.794	7.94	12.6	0.398
Cl.Clc1cccc(-c2nnnn2Cc2cccnc2)c1Cl.O [A438079, 3-(5-(2,3-dichlorophenyl)-1H-tetrazol-1-yl)methyl pyridine hydrochloride hydrate]	0.251		0.933 µM and 1 µM	3.16	10	0.2		5.01	31.6	> 100	1.58	1
